Measured values reported in patent US5298619A, “1,4-dihydropyridine compounds with PAF-antagonistic activity” (Alter, S.A., priority 1991, dated 1994).

Tests used:
[1] = system: PAF; conditions: cited from earlier work; for PAF antagonistic properties: background statement
[2] = system: aggregation induced by 1-PAF in rabbit platelets; test: Effect on the aggregation induced by 1-PAF in rabbit platelets (washed platelets); assay type: cell-based, rabbit (male, albino, New Zealand); conditions: Oryctolagus cuniculus, Platelet, 37° C., 5 min preincubation, 1-PAF=1.92 nM, compounds 10 to 0.1 micM, mean of three experiments in duplicate
Procedure: STUDIES WITH WASHED PLATELETS: Aggregation
The suspensions of washed platelets were obtained from rabbit's blood (male, albino, New Zealand), anticoagulated with a solution of citric acid citrate/sodium dextrose in the ratio 1:6 (v:v).
The platelet rich plasma (PRP) was obtained by centrifuging blood samples at 100×g for 10 minutes and the platelets by centrifuging the PRP at 1,800×g for 15 minutes at 4° C. The pellet obtained in this way was washed twice with Tyrode tampon containing citric acid, PGE and aspirase, pH 6.5. The platelets so-washed were finally resuspended in Hepes-Tyrode tampon, pH 7.35 supplemented with bovine seric albumin at 0.35%; Ca++ 2 mM.
The final platelet concentration was adjusted to 300,000 platelets/mic-1. The aggregation was measured turbidimetrically using a lumiaggregometre (Chrono-Log.Co; Haventon, Pa., USA) at 37° C. under stirring at 1,100 r.p.m. The study was made in aliquots of preincubated PRP, with the compounds under study, for 5 minutes. The concentration of the antagonists was, in all cases, between 10 micM and 0.1 micM. The aggregation was induced by adding L-PAF diluted in 5 micl of Hepes/albumin tampon, the final concentration being 1.9×0,000000001. The IC50 for each compound was evaluated graphically from the dose-response curves.
The data reflected is the mean of three experiments performed in duplicate. Concentration of 1-PAF=1.92 nM.
The concentrations of compounds, in all cases, were between 10 and 0.1 micM .

[3] = system: bronchoconstriction; conditions: doses times lower than histamine; cited from earlier work

SMILES | IC50 [2] [nM] | also measured
COc1ccc([C@@H]2Sc3ccccc3N(CCN(C)C)C(=O)[C@@H]2OC(C)=O)cc1 [Diltiazem] | – | PAF antagonistic properties [1]: present PAF antagonistic properties
COC(=O)C1=C(C)NC(C)=C(C(=O)OCCCSc2ccc(Cl)cc2)C1C (centres unmarked) [Example 1, 3-(4-chlorophenylthio) propyl 5-methoxycarbonyl-2,4,6-trimethyl-1,4-dihydropyridine-3-carboxylate] | 340 | –
COC(=O)C1=C(C)NC(C)=C(C(=O)OCCS(=O)(=O)c2ccc(C)cc2)C1C (centres unmarked) [Example 2, 2-(4-methylphenylsulphonyl) ethyl 5-methoxycarbonyl-2,4,6-trimethyl-1,4-dihydropyridine-3-carboxylate] | 1100 | –
COC(=O)C1=C(C)NC(C)=C(C(=O)OCCCOc2ccc(-c3ccccc3)cc2)C1C (centres unmarked) [Example 3, 3-(4-phenylphenoxy) propyl 5-methoxycarbonyl-2,4,6-trimethyl-1,4-dihydropyridine-3-carboxylate] | 240 | –
COC(=O)C1=C(C)NC(C)=C(C(=O)OCCCSc2ccc(C)cc2)C1C (centres unmarked) [Example 4, 3-(4-methylphenylthio) propyl 5-methoxycarbonyl-2,4,6-trimethyl-1,4-dihydropyridine-3-carboxylate] | 850 | –
COC(=O)C1=C(C)NC(C)=C(C(=O)OCCS(=O)(=O)c2ccccc2)C1C (centres unmarked) [Example 5, 2-(phenylsulphonyl) ethyl 5-methoxycarbonyl-2,4,6-trimethyl-1,4-dihydropyridine-3-carboxylate] | 1300 | –
COC(=O)C1=C(C)NC(C)=C(C(=O)OCCCOc2ccccc2)C1C (centres unmarked) [Example 6] | 3000 | –
COC(=O)C1=C(C)NC(C)=C(C(=O)OCCCS(=O)(=O)c2ccccc2)C1C (centres unmarked) [Example 13] | 2300 | –
COC(=O)C1=C(C)NC(C)=C(C(=O)OCCCSc2ccc(NC(C)=O)cc2)C1C (centres unmarked) [Example 30] | 3100 | –
COC(=O)C1=C(C)NC(C)=C(C(=O)OCCCOc2ccc(Cl)c(Cl)c2)C1C (centres unmarked) [Example 41] | 2700 | –
COC(=O)C1=C(C)NC(C)=C(C(=O)OCCCSc2ccc(Cl)c(Cl)c2)C1C (centres unmarked) [Example 45] | 150 | –
CCOC(=O)C1=C(C)NC(C)=C(C(=O)OCCCSc2ccc(Cl)c(Cl)c2)C1C (centres unmarked) [Example 46] | 1400 | –
COC(=O)C1=C(C)NC(C)=C(C(=O)OCCCOc2ccc(C)cc2)C1C (centres unmarked) [Example 48] | 4000 | –
COC(=O)C1=C(C)NC(C)=C(C(=O)OCCCS(=O)(=O)c2ccc(C)cc2)C1C (centres unmarked) [Example 52] | 2700 | –
COC(=O)C1=C(C)NC(C)=C(C(=O)OCCCOc2ccc(OC)cc2)C1C (centres unmarked) [Example 61] | 2000 | –
COC(=O)C1=C(C)NC(C)=C(C(=O)OCCOc2ccc(OC)cc2)C1C (centres unmarked) [Example 62] | 10000 | –
COC(=O)C1=C(C)NC(C)=C(C(=O)OCCOc2ccc(-c3ccccc3)cc2)C1C (centres unmarked) [Example 64] | 2800 | –
CCOC(=O)C1=C(C)NC(C)=C(C(=O)OCCCOc2ccc(-c3ccccc3)cc2)C1C (centres unmarked) [Example 66] | 2400 | –
CCOC(=O)C1=C(C)NC(C)=C(C(=O)OCCS(=O)(=O)c2ccccc2)C1C (centres unmarked) [Example 74] | 2800 | –
COC(=O)C1=C(C)NC(C)=C(C(=O)OCCCSc2ccc([N+](=O)[O-])cc2)C1C (centres unmarked) [Example 76] | 2800 | –

SMILES | IC50 [2] [nM] | also measured
CCOC(=O)C1=C(C)NC(C)=C(C(=O)OCCCSc2ccc(Cl)cc2)C1C (centres unmarked) [Example 82] | 2800 | –
COC(=O)C1=C(C)NC(C)=C(C(=O)OCCOc2ccc([N+](=O)[O-])cc2)C1C (centres unmarked) [Example 110] | 4300 | –
COC(=O)C1=C(C)NC(C)=C(C(=O)OCCOc2cccc3ccccc23)C1C (centres unmarked) [Example 113] | 3000 | –
COC(=O)C1=C(C)NC(C)=C(C(=O)OCCOc2ccc(Cl)cc2)C1C (centres unmarked) [Example 131] | 10000 | –
CCOC(=O)C1=C(C)NC(C)=C(C(=O)OCCCOc2cccc(N(C)C)c2)C1C (centres unmarked) [Example 133] | 2400 | –
COC(=O)C1=C(C)NC(C)=C(C(=O)OCCOc2cccc(N(C)C)c2)C1C (centres unmarked) [Example 135] | 2800 | –
COC(=O)C1=C(C)NC(C)=C(C(=O)OCCCOc2ccc(Oc3ccccc3)cc2)C1C (centres unmarked) [Example 139] | 700 | –
COC(=O)C1=C(C)NC(C)=C(C(=O)OCCOc2ccc(Oc3ccccc3)cc2)C1C (centres unmarked) [Example 140] | 2000 | –
CCOC(=O)C1=C(C)NC(C)=C(C(=O)OCCCOc2ccc3ccccc3c2)C1C (centres unmarked) [Example 152, 3-(2-naphthyloxy) propyl 5-ethoxycarbonyl-2,4,6-trimethyl-1,4-dihydropyridine-3-carboxylate] | 3000 | –
COC(=O)C1=C(C)NC(C)=C(C(=O)OCCCOc2cccc3ccccc23)C1C (centres unmarked) [Example 154] | 1100 | –
COC(=O)C1=C(C)NC(C)=C(C(=O)OCCCSc2ccccc2)C1C (centres unmarked) [Example 163, 3-(phenylthio) propyl 5-methoxycarbonyl-2,4,6-trimethyl-1,4-dihydropyridine-3-carboxylate] | 410 | –
CCC1C(C(=O)OC)=C(C)NC(C)=C1C(=O)OCCCSc1ccc(Cl)cc1 (centres unmarked) [Example 164, 3-(4-chlorophenylthio) propyl 2,6-dimethyl-4-ethyl-5-methoxycarbonyl-1,4-dihydropyridine-3-carboxylate] | 320 | –
CCOC(=O)C1=C(C)NC(C)=C(C(=O)OCCCSc2ccc(Cl)cc2)C1CC (centres unmarked) [Example 165, 3-(4-chlorophenylthio) propyl 2,6-dimethyl-4-ethyl-5-ethoxycarbonyl-1,4-dihydropyridine-3-carboxylate] | 2500 | –
CCOC(=O)C1=C(C)NC(C)=C(C(=O)OCCCSc2ccccc2)C1C (centres unmarked) [Example 166] | 2600 | –
COC(=O)C1=C(C)NC(C)=C(C(=O)OCCCSc2ccc3ccccc3c2)C1C (centres unmarked) [Example 167] | 400 | –
CCC1C(C(=O)OC)=C(C)NC(C)=C1C(=O)OCCCSc1ccc(C)cc1 (centres unmarked) [Example 172] | 190 | –
COc1ccc(CCN(C)CCCC(C#N)(c2cc(OC)c(OC)c(OC)c2)C(C)C)cc1OC (centres unmarked) [Gallopamil] | – | PAF antagonistic properties [1]: present PAF antagonistic properties
COC(=O)C1=C(C)NC(C)=C(C(=O)OC)C1c1ccccc1[N+](=O)[O-] [Nifedipina] | – | PAF antagonistic properties [1]: only show a very weak activity; concentrations needed to obtain an effect, relative to those inhibiting calcium flow in other cells ([1]; fold higher than those inhibiting calcium flow in other cells): 1,000,000; concentrations needed to obtain an effect, relative to the specific antagonists of the PAF-"acether" ([1]; times greater than the specific antagonists of the PAF-"acether"): ≥ 1,000 times
CCCCCCCCCCCCCCCCOCC(COP(=O)([O-])OCC[N+](C)(C)C)OC(C)=O (centres unmarked) [PAF-"acether", 1-O-hexadecyl/octodecyl-2-acetyl-sn-glycero-3-phosphocoline] | – | doses inducing bronchoconstriction, relative to histamine [3]: 100 times lower
